Measured values taken from patent US6737383B1, “Herbicidal oxadiazolidines” (priority 1999, dated 2004).

Tests used:
wheat = test: Test B pre/postemergence wheat; type: in vivo, Triticum aestivum; settings: for Plant response rating, Wheat: Postemergence
How it was run: (§1)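 Test chemicals in a non-phytotoxic solvent mixture with surfactant were sprayed preemergence onto planted seeds and postemergence onto plants 2 to 18 cm tall (1- to 4-leaf stage). After twelve to sixteen days in a greenhouse, injury was visually rated against untreated controls from 0 (no effect) to 10 (complete control).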

crabgrass = test: Test B pre/postemergence crabgrass; type: in vivo, Digitaria sanguinalis
How it was run: as §1

velvetleaf = test: Test B pre/postemergence velvetleaf; type: in vivo, Abutilon theophrasti; settings: for Plant response rating, Velvetleaf: Postemergence
How it was run: as §1

blackgrass = test: Test B pre/postemergence blackgrass; type: in vivo, Alopecurus myosuroides
How it was run: as §1

morningglory = test: Test B pre/postemergence morningglory; type: in vivo, Ipomoea hederacea
How it was run: as §1

pigweed = test: Test B pre/postemergence pigweed; type: in vivo, Amaranthus retroflexus; settings: for Plant response rating, Redroot pigweed: Postemergence
How it was run: as §1

soybean = test: Test B pre/postemergence soybean; type: in vivo, Glycine max; settings: for Plant response rating, Soybean: Postemergence
How it was run: as §1

sugar beet = test: Test B pre/postemergence sugar beet; type: in vivo, Beta vulgaris; settings: for Plant response rating, Sugarbeets: Postemergence
How it was run: as §1

purple nutsedge = test: Test B pre/postemergence purple nutsedge; type: in vivo, Cyperus rotundus
How it was run: as §1

rape = test: Test B pre/postemergence rape; type: in vivo, Brassica napus
How it was run: as §1

corn = test: Test B pre/postemergence corn; type: in vivo, Zea mays
How it was run: as §1

cocklebur = test: Test B pre/postemergence cocklebur; type: in vivo, Xanthium strumarium
How it was run: as §1

wild oat = test: Test B pre/postemergence wild oat; type: in vivo, Avena fatua; settings: for Plant response rating, Wild oats: Postemergence
How it was run: as §1

bedstraw = test: Test B pre/postemergence bedstraw; type: in vivo, Galium aparine
How it was run: as §1

surinam grass = test: Test B pre/postemergence surinam grass; type: in vivo, Brachiaria decumbens
How it was run: as §1

giant foxtail = test: Test B pre/postemergence giant foxtail; type: in vivo, Setaria faberii
How it was run: as §1

[1] = Rate 500 g/ha, scale of 0 to 10 where 0 is no effect and 10 is complete control
[2] = Preemergence, Rate 62 g/ha, scale 0 to 10 (0 no effect, 10 complete control)
[3] = Preemergence, Rate 125 g/ha, scale of 0 to 10 where 0 is no effect and 10 is complete control
[4] = Preemergence, Rate 500 g/ha, scale of 0 to 10 where 0 is no effect and 10 is complete control
[5] = Rate 250 g/ha, scale of 0 to 10 where 0 is no effect and 10 is complete control
[6] = Postemergence, Rate 62 g/ha, scale of 0 to 10, 0 is no effect, 10 is complete control
[7] = Postemergence, Rate 125 g/ha, scale 0 to 10, 0 is no effect, 10 is complete control
[8] = Postemergence, Rate 500 g/ha, scale of 0 to 10 where 0 is no effect and 10 is complete control
[9] = Rate 250 g/ha, Postemergence, scale of 0 to 10 where 0 is no effect and 10 is complete control

CC(C)N(C(=O)n1oc(=O)n(COCc2ccccc2)c1=O)c1ccccc1 [Compound 579]
0: Plant response rating, Wheat (wheat; [1]) | Wheat plant response rating (wheat; [2]) | Wheat plant response rating (wheat; [3]) | Wheat plant response rating (0 to 10 scale) (wheat; Preemergence, Rate 250 g/ha) | Wheat plant response rating (wheat; [4]) | Plant response rating, Wheat (wheat; [5]) | Crabgrass plant response rating (crabgrass; [6]) | Plant response rating, Velvetleaf (velvetleaf; [1]) | Velvetleaf plant response rating (velvetleaf; [2]) | Velvetleaf plant response rating (velvetleaf; [3]) | Velvetleaf plant response rating (0 to 10 scale) (velvetleaf; Preemergence, Rate 250 g/ha) | Velvetleaf plant response rating (velvetleaf; [4]) | Plant response rating, Velvetleaf (velvetleaf; [5]) | Blackgrass plant response rating (blackgrass; [6]) | Blackgrass plant response rating (blackgrass; [7]) | Blackgrass plant response rating (blackgrass; [2]) | Blackgrass plant response rating (blackgrass; [3]) | Blackgrass plant response rating (0 to 10 scale) (blackgrass; Preemergence, Rate 250 g/ha) | Blackgrass plant response rating (blackgrass; [4]) | Morningglory plant response rating (morningglory; [2]) | Morningglory plant response rating (morningglory; [3]) | Morningglory plant response rating (0 to 10 scale) (morningglory; Preemergence, Rate 250 g/ha) | Morningglory plant response rating (morningglory; [4]) | Redroot pigweed plant response rating (pigweed; [2]) | Redroot pigweed plant response rating (pigweed; [3]) | Plant response rating, Redroot pigweed (pigweed; [5]) | Soybean plant response rating (soybean; [2]) | Soybean plant response rating (soybean; [3]) | Soybean plant response rating (0 to 10 scale) (soybean; Preemergence, Rate 250 g/ha) | Soybean plant response rating (soybean; [4]) | Plant response rating, Sugarbeets (sugar beet; [1]) | Sugarbeets plant response rating (sugar beet; [2]) | Sugarbeets plant response rating (sugar beet; [3]) | Sugarbeets plant response rating (0 to 10 scale) (sugar beet; Preemergence, Rate 250 g/ha) | Sugarbeets plant response rating (sugar beet; [4]) | Plant response rating, Sugarbeets (sugar beet; [5]) | Nutsedge plant response rating (purple nutsedge; [7]) | Nutsedge plant response rating (purple nutsedge; [2]) | Nutsedge plant response rating (purple nutsedge; [3]) | Nutsedge plant response rating (0 to 10 scale) (purple nutsedge; Preemergence, Rate 250 g/ha) | Plant response rating, Nutsedge (purple nutsedge; [9]) | Rape plant response rating (rape; [6]) | Rape plant response rating (rape; [7]) | Rape plant response rating (rape; [2]) | Rape plant response rating (rape; [3]) | Rape plant response rating (0 to 10 scale) (rape; Preemergence, Rate 250 g/ha) | Rape plant response rating (rape; [4]) | Plant response rating, Rape (rape; [9]) | Corn plant response rating (corn; [6]) | Corn plant response rating (corn; [7]) | Plant response rating, Corn (corn; [8]) | Corn plant response rating (corn; [2]) | Corn plant response rating (corn; [3]) | Corn plant response rating (0 to 10 scale) (corn; Preemergence, Rate 250 g/ha) | Plant response rating, Corn (corn; [9]) | Cocklebur plant response rating (cocklebur; [6]) | Cocklebur plant response rating (cocklebur; [7]) | Plant response rating, Cocklebur (cocklebur; [8]) | Cocklebur plant response rating (cocklebur; [2]) | Cocklebur plant response rating (cocklebur; [3]) | Cocklebur plant response rating (0 to 10 scale) (cocklebur; Preemergence, Rate 250 g/ha) | Cocklebur plant response rating (cocklebur; [4]) | Plant response rating, Cocklebur (cocklebur; [9]) | Plant response rating, Wild oats (wild oat; [1]) | Wild oats plant response rating (wild oat; [2]) | Wild oats plant response rating (wild oat; [3]) | Wild oats plant response rating (0 to 10 scale) (wild oat; Preemergence, Rate 250 g/ha) | Wild oats plant response rating (wild oat; [4]) | Plant response rating, Wild oats (wild oat; [5]) | Bedstraw plant response rating (bedstraw; [6]) | Bedstraw plant response rating (bedstraw; [7]) | Bedstraw plant response rating (bedstraw; [2]) | Bedstraw plant response rating (bedstraw; [3]) | Bedstraw plant response rating (0 to 10 scale) (bedstraw; Preemergence, Rate 250 g/ha) | Bedstraw plant response rating (bedstraw; [4]) | B. signalgrass plant response rating (surinam grass; [6]) | B. signalgrass plant response rating (surinam grass; [7]) | B. signalgrass plant response rating (surinam grass; [2]) | B. signalgrass plant response rating (surinam grass; [3]) | Giant foxtail plant response rating (giant foxtail; [6])
8: Plant response rating, Crabgrass (crabgrass; [8]) | Giant foxtail plant response rating (giant foxtail; [2])
4: Plant response rating, Soybean (soybean; [1])
7: Crabgrass plant response rating (crabgrass; [2]) | Crabgrass plant response rating (crabgrass; [3]) | Plant response rating, Giant foxtail (giant foxtail; [8])
6: Crabgrass plant response rating (crabgrass; [7]) | Plant response rating, Crabgrass (crabgrass; [9])
3: Plant response rating, Redroot pigweed (pigweed; [1]) | Redroot pigweed plant response rating (pigweed; [4]) | Plant response rating, Soybean (soybean; [5]) | Nutsedge plant response rating (purple nutsedge; [4]) | Plant response rating, Rape (rape; [8]) | Corn plant response rating (corn; [4]) | B. signalgrass plant response rating (surinam grass; [4])
2: Plant response rating, Blackgrass (blackgrass; [9]) | Redroot pigweed plant response rating (0 to 10 scale) (pigweed; Preemergence, Rate 250 g/ha) | Plant response rating, B. signalgrass (surinam grass; [8]) | B. signalgrass plant response rating (0 to 10 scale, 0 is no effect, 10 is complete control) (surinam grass; Preemergence, Rate 250 g/ha) | Plant response rating, B. signalgrass (surinam grass; [9]) | Giant foxtail plant response rating (giant foxtail; [7])
9: Giant foxtail plant response rating (giant foxtail; [3])
5: Plant response rating, Blackgrass (blackgrass; [8]) | Plant response rating, Giant foxtail (giant foxtail; [9])
10: Crabgrass plant response rating (0 to 10 scale) (crabgrass; Preemergence, Rate 250 g/ha) | Crabgrass plant response rating (crabgrass; [4]) | Morningglory plant response rating (morningglory; [6]) | Morningglory plant response rating (morningglory; [7]) | Plant response rating, Morningglory (morningglory; [8]) | Plant response rating, Morningglory (morningglory; [9]) | Plant response rating, Bedstraw (bedstraw; [9]) | Giant foxtail plant response rating (0 to 10 scale) (giant foxtail; Preemergence, Rate 250 g/ha) | Giant foxtail plant response rating (giant foxtail; [4])
